Laboratory results taken from US20040224958A1, “Pyridopyrimidinone derivatives for treatment of neurodegenerative disease” (priority 2000, published 2004).
Where two headings read alike, the source gives them in different places.

Key:
cdk4/D = cdk4/D (Homo sapiens, UniProt P11802); experiment: Cyclin-Dependent Kinase 4 (cdk4) Assay; type: biochemical
Method: A typical assay, for instance, measures inhibitory activity against the cyclin D dependent kinase 4 enzyme (cdk4/D). […] The cdk4 assay was carried out as follows.
Cyclin-Dependent Kinase 4 (cdk4) Assay
All components except the ATP were added to the wells, and the plate was placed on a plate mixer for 2 minutes. The reaction was started by adding [^32P]ATP and the plate was incubated at 25° C. for 15 minutes. The reaction was terminated by addition of 0.1 mL of 20% trichloroacetic acid (TCA). The plate was kept at 4° C. for at least 1 hour to allow the substrate to precipitate. The wells were then washed five times with 0.2 mL of 10% TCA and ^32P incorporation was determined with a beta plate counter (Wallac Inc., Gaithersburg, Md.).

cdc2/cyclinB = cdc2/cyclinB (Homo sapiens, UniProt P06493); experiment: Cyclin-Dependent Kinase Assay cdc2/cyclinB
Cdk5/p25 = Cdk5/p25 (Homo sapiens, UniProt Q00535); experiment: Cyclin-Dependent Kinase 5 High Throughput Screening (cdk5-HTS) Assay; type: biochemical; conditions: high throughput screen
Method: Cyclin-Dependent Kinase 5 High Throughput Screening (cdk5-HTS) Assay
Enzyme assays for IC50 determinations were performed in 96-Pierce Reacti-Bind™ White Opaque Glutatione Coated Plates (Cat. No. 15240B).
The total volume was 0.100 mL containing a final concentration of 50 mM TRIS (tris[hydroxymethyl]aminomethane) at pH 7.4, 50 mM NaCl, 10 mM MgCl2, 5 mM dithiothreitol, 20 μM ATP containing 16 μCi/mL of Redivue[y33P]ATP (Amersham Pharmacia Biotech Cat. No. AH9968), 1.0 μg/mL Cdk5/p25, 20 μg/mL GST-RbCOOH, and appropriate dilutions of a compound of the present invention. The reaction was started by adding[^33P]ATP, and the plate was shaken for 30 seconds, then incubated at room temperature for 30 minutes. The reaction was terminated by addition of 0.05 mL of 120 mM EDTA. The plate was kept at room temperature for 45 minutes to allow substrate to bind to the walls of the plate. The wells were then washed three times with 0.2 mL of 1×PBS. Once thoroughly dry, 0.140 mL of MicroScint™2O (Packard Bioscience Cat. No. 87-9081) cocktail was added to all wells. The incorporation of ^33P was determined with a beta plate counter (Packard Topcount).

cdk2/cyclinE = cdk2/cyclinE (Homo sapiens, UniProt P24941); experiment: Cyclin-Dependent Kinase Assay cdk2/cyclinE; conditions: cdk2/E IC50
cdk2/cyclinA = cdk2/cyclinA (Homo sapiens, UniProt P24941); experiment: Cyclin-Dependent Kinase Assay cdk2/cyclinA; conditions: cdk2/A IC50

Chain of cdk4/D (P11802 whole entry): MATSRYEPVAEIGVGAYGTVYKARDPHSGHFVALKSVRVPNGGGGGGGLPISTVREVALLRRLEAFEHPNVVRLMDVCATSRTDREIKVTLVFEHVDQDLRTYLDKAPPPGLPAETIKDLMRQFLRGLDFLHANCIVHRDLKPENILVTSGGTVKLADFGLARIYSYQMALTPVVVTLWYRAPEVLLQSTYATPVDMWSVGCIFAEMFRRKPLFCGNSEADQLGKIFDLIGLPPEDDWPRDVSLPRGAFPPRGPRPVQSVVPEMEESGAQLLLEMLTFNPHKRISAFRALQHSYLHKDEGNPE
Chain of cdk4/D (P24385 whole entry, further chain): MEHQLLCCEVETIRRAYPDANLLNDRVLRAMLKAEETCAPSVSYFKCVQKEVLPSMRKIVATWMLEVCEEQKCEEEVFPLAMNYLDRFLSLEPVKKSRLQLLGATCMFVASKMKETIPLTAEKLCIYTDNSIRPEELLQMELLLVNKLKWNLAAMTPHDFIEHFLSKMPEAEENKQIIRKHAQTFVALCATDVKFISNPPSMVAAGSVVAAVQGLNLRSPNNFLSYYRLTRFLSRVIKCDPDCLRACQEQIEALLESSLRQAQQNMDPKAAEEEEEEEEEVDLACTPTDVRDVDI
Chain of cdc2/cyclinB (P06493 whole entry): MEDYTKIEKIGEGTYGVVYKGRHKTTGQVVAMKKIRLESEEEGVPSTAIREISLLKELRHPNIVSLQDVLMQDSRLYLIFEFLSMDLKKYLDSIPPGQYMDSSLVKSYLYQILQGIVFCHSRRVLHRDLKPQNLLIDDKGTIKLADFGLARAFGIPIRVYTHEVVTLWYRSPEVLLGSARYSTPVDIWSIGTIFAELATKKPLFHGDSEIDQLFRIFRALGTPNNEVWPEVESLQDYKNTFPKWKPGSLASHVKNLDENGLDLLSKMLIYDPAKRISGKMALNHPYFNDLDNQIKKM
Chain of cdc2/cyclinB (P14635 whole entry, further chain): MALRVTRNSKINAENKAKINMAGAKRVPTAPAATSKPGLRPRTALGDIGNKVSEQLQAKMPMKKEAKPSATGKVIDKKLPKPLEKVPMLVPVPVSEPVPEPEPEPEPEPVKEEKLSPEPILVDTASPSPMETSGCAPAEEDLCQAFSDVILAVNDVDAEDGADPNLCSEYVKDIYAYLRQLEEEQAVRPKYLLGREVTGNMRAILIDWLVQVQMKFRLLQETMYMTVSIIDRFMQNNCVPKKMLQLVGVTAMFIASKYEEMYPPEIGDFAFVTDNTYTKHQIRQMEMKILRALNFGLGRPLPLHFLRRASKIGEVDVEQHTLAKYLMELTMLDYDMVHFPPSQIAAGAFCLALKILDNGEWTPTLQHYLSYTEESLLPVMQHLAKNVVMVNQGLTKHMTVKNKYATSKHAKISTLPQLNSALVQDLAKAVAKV

IC50 (cdk4/D; read-out: cdk4/D IC50)	IC50 (Cdk5/p25)	Compound	also measured
420 nM		O=c1ccc2cnc(Nc3ccc4c(c3)CCN4)nc2n1CC1CC1 [Example 581, 8-Cyclopropylmethyl-2-(2,3-dihydro-1H-indol-5-ylamino)-8H-pyrido[2,3-d]pyrimidin-7-one]	IC50 (cdc2/cyclinB): 1600 nM
	3300 nM	O=c1ccc2cnc(Nc3cccc(C(F)(F)F)c3)nc2n1CC(F)(F)F [Example 611, 8-(2,2,2-Trifluoro-ethyl)-2-(3-trifluoromethyl-phenylamino)-8H-pyrido[2,3-d]pyrimidin-7-one]	
	555 nM	O=c1ccc2cnc(Nc3ccc4[nH]ncc4c3)nc2n1CC(F)(F)F [Example 594, 2-(1H-Indazol-5-ylamino)-8-(2,2,2-trifluoro-ethyl)-8H-pyrido[2,3-d]pyrimidin-7-one]	IC50 (cdk2/cyclinE): 1670 nM; IC50 (cdc2/cyclinB): 1900 nM
3600 nM		CCn1c(=O)ccc2cnc(Nc3ccc(OC(F)(F)F)c(Br)c3)nc21 [Example 306, 2-(3-Bromo-4-trifluoromethoxy-phenylamino)-8-ethyl-8H-pyrido[2,3-d]pyrimidin-7-one]	
3200 nM		CCn1c(=O)ccc2cnc(Nc3ccc(NC(C)=O)c(C#N)c3)nc21 [Example 308, N-[2-Cyano-4-(8-ethyl-7-oxo-7,8-dihydro-pyrido[2,3-d]pyrimidin-2-ylamino)-phenyl]-acetamide]	
	1700 nM	COc1cc(Nc2ncc3ccc(=O)n(C)c3n2)cc(OC)c1OC [Example 619, 8-Methyl-2-(3,4,5-trimethoxy-phenylamino)-8H-pyrido[2,3-d]pyrimidin-7-one]	
		CCNc1nc(Nc2ccccc2)ncc1C=CC(=O)OCC [Example 17, Ethyl 3-(4-Ethylamino-2-phenylamino-pyrimidin-5-yl)acrylate]	IC50 (cdk4/D; Table 2, Formula II compounds, read-out: cdk4 IC50): 2000 nM
	2200 nM	Cn1c(=O)ccc2cnc(Nc3ccc(O)c(Cl)c3)nc21 [Example 616, 2-(3-Chloro-4-hydroxy-phenylamino)-8-methyl-8H-pyrido[2,3-d]pyrimidin-7-one]	IC50 (cdk2/cyclinE): 3800 nM
3200 nM		CC(C)n1c(=O)ccc2cnc(Nc3ccc4c(c3)CCN4)nc21 [Example 437, 2-(2,3-Dihydro-1H-indol-5-ylamino)-8-isopropyl-8H-pyrido[2,3-d]pyrimidin-7-one]	
	650 nM	CCn1c(=O)ccc2cnc(Nc3cc(C(F)(F)F)ccc3F)nc21 [Example 302, 8-Ethyl-2-(2-fluoro-5-trifluoromethyl-phenylamino)-8H-pyrido[2,3-d]pyrimidin-7-one]	IC50 (cdk2/cyclinE): 2300 nM
	3200 nM	O=c1ccc2cnc(Nc3cc(F)cc(F)c3)nc2n1CC(F)(F)F [Example 609, 2-(3,5-Difluoro-phenylamino)-8-(2,2,2-trifluoro-ethyl)-8H-pyrido[2,3-d]pyrimidin-7-one]	
1700 nM		CCC(C)n1c(=O)ccc2cnc(Nc3ccc(Br)c(C)c3)nc21 (stereo not drawn) [Example 479, 2-(4-Bromo-3-methyl-phenylamino)-8-sec-butyl-8H-pyrido[2,3-d]pyrimidin-7-one]	
2600 nM	1300 nM	Cc1cc(Nc2ncc3ccc(=O)n(C(C)C)c3n2)ccc1O [Example 435, 2-(4-Hydroxy-3-methyl-phenylamino)-8-isopropyl-8H-pyrido[2,3-d]pyrimidin-7-one]	
2800 nM		CC(=O)Nc1c(F)cc(Nc2ncc3ccc(=O)n(CC4CC4)c3n2)cc1Cl [Example 579, N-[2-Chloro4-(8-cyclopropylmethyl-7-oxo-7,8-dihydro-pyrido[2,3-d]pyrimidin-2-ylamino)-6-fluoro-phenyl]-acetamide]	IC50 (cdk2/cyclinA): 3900 nM; IC50 (cdk2/cyclinE): 2900 nM
1300 nM	180 nM	COc1ccc(Nc2ncc3ccc(=O)n(CC(F)(F)F)c3n2)cc1F [Example 602, 2-(3-Fluoro-4-methoxy-phenylamino)-8-(2,2,2-trifluoro-ethyl)-8H-pyrido[2,3-d]pyrimidin-7-one]	IC50 (cdc2/cyclinB): 1800 nM
1300 nM		CCC(C)n1c(=O)ccc2cnc(Nc3ccc(C)c(Br)c3)nc21 (stereo not drawn) [Example 478, 2-(3-Bromo-4-methyl-phenylamino)-8-sec-butyl-8H-pyrido[2,3-d]pyrimidin-7-one]	

IC50 (cdk4/D; read-out: cdk4/D IC50)	IC50 (Cdk5/p25)	Compound	also measured
1400 nM	610 nM	O=c1ccc2cnc(Nc3ccc(F)c(F)c3)nc2n1CC(F)(F)F [Example 607, 2-(3,4-Difluoro-phenylamino)-8-(2,2,2-trifluoro-ethyl)-8H-pyrido[2,3-d]pyrimidin-7-one]	
2800 nM		CCn1c(=O)ccc2cnc(Nc3ccc(C)c(NS(C)(=O)=O)c3)nc21 [Example 307, N-[5-(8-Ethyl-7-oxo-7,8-dihydro-pyrido[2,3-d]pyrimidin-2-ylamino)-2-methyl-phenyl]-methanesulfonamide]	
3200 nM	2000 nM	CC(=O)Nc1cc(Nc2ncc3ccc(=O)n(CC(F)(F)F)c3n2)ccc1C#N [Example 604, N-{2-Cyano-5-[7-oxo-8-(2,2,2-trifluoro-ethyl)-7,8-dihydro-pyrido[2,3-d]pyrimidin-2-ylamino]-phenyl}-acetamide]	
	420 nM	Cn1c(=O)ccc2cnc(Nc3ccc(C#N)c(C(F)(F)F)c3)nc21 [Example 620, 4-(8-Methyl-7-oxo-7,8-dihydro-pyrido[2,3-d]pyrimidin-2-ylamino)-2-trifluoromethyl-benzonitrile]	
	1200 nM	N#Cc1ccc(Nc2ncc3ccc(=O)n(CC(F)(F)F)c3n2)cc1C#N [Example 603, 4-[7-Oxo-8-(2,2,2-trifluoro-ethyl)-7,8-dihydro-pyrido[2,3-d]pyrimidin-2-ylamino]-phthalonitrile]	
3800 nM	1800 nM	COc1cc(Nc2ncc3ccc(=O)n(CC(F)(F)F)c3n2)cc(C(F)(F)F)c1 [Example 606, 2-(3-Methoxy-5-trifluoromethyl-phenylamino)-8-(2,2,2-trifluoro-ethyl)-8H-pyrido[2,3-d]pyrimidin-7-one]	IC50 (cdc2/cyclinB): 3500 nM
		CCn1c(=O)ccc2cnc(Nc3ccccc3OCc3ccccc3)nc21 [Example 56, 2-Benzyloxyphenylamino-8-ethyl-8H-pyrido[2,3-d]pyrimidin-7-one]	IC50 (cdk4/D; Table 1, read-out: cdk4/D IC50): 25000 nM
	830 nM	CCCn1c(=O)ccc2cnc(Nc3ccc(C#N)c(C#N)c3)nc21 [Example 339, 4-(7-Oxo-8-propyl-7,8-dihydro-pyrido[2,3-d]pyrimidin-2-ylamino)-phthalonitrile]	IC50 (cdk2/cyclinE): 1800 nM
1900 nM		CCCn1c(=O)ccc2cnc(Nc3ccc(OC(F)(F)F)c(Br)c3)nc21 [Example 363, 2-(3-Bromo-4-trifluoromethoi-phenylamino)-8-propyl-8H-pyrido[2,3-d]pyrimidin-7-one]	
2900 nM		CCC(C)n1c(=O)ccc2cnc(Nc3ccc(C)c(NS(C)(=O)=O)c3)nc21 (stereo not drawn) [Example 480, N-[5-(8-sec-Butyl-7-oxo-7,8-dihydro-pyrido[2,3-d]pyrimidin-2-ylamino)-2-methyl-phenyl]-methanesulfonamide]	
3100 nM		CCCCn1c(=O)ccc2cnc(Nc3ccc(C)c(NS(C)(=O)=O)c3)nc21 [Example 405, N-[5-(8-Butyl-7-oxo-7,8-dihydro-pyrido[2,3-d]pyrimidin-2-ylamino)-2-methyl-phenyl]-methanesulfonamide]	
	2900 nM	CCCn1c(=O)ccc2cnc(Nc3ccc4c(c3)NCC4)nc21 [Example 352, 2-(2,3-Dihydro-1H-indol-6-ylamino)-8-propyl-8H-pyrido[2,3-d]pyrimidin-7-one]	
99 nM		O=c1ccc2cnc(Nc3ccc4c(c3)CCN4)nc2n1C1CCCC1 [Example 553, 8-Cyclopentyl-2-(2,3-dihydro-1H-indol-5-ylamino)-8H-pyrido[2,3-d]pyrimidin-7-one]	IC50 (cdc2/cyclinB): 2500 nM
	3500 nM	CCC(CC)n1c(=O)ccc2cnc(Nc3ccc(C(F)(F)F)c([N+](=O)[O-])c3)nc21 [Example 489, 8-(1-Ethyl-propyl)-2-(3-nitro-4-trifluoromethyl-phenylamino)-8H-pyrido[2,3-d]pyrimidin-7-one]	
2700 nM		CC(=O)Nc1ccc(Nc2ncc3ccc(=O)n(C(C)C)c3n2)cc1C#N [Example 445, N-[2-Cyano-4-(8-isopropyl-7-oxo-7,8-dihydro-pyrido[2,3-d]pyrimidin-2-ylamino)-phenyl]-acetamide]	

Compound	IC50 (cdk4/D; read-out: cdk4/D IC50)	IC50 (Cdk5/p25)	also measured
8-Butyl-2-(2-fluoro-4-nitro-phenylamino)-8H-pyrido[2,3-d]pyrimidin-7-one [Example 367]	2300 nM		
